According to patent US12285460B2, “Pharmaceutical compositions” (RHYTHM PHARMACEUTICALS, INC., priority 2013, dated 2025):
Bridge positions count the residues as written; N and C are the ends. Square brackets hold non-standard residues; d marks the D form. Peptide text beside a SMILES is read from it.

Assays:
Format in all cases: cell-based
[1] = biological target: T1, MC1R (Homo sapiens, UniProt Q01726); assay: cAMP assay (EC50), MC1R; settings: EC50(MC1R)/EC50(MC4R)
T1 construct: host or cells: CHO-K1 (ECL assay)
T1 sequence (Q01726 whole entry): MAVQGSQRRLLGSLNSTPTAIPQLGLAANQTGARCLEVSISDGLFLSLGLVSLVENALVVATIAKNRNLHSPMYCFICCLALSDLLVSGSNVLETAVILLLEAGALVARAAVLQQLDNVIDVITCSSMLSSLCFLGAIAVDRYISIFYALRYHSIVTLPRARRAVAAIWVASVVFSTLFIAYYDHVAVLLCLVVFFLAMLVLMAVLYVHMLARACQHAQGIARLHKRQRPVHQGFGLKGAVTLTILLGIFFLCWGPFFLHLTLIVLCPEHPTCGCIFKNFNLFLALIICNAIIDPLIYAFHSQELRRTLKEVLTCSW
Description: (§1) Stimulation of intracellular cyclic AMP (cAMP) levels by the peptides is determined in a dose dependent manner by an electrochemiluminescence (ECL) assay (Meso Scale Discovery, Gaithersburg, MD, USA; referred to hereinafter as “MSD”). Briefly, the CHO-K1 cells stably expressing the hMC receptor subtypes are suspended in RMPI 1640® assay buffer (RMPI 1640 buffer contains 0.5 mM IBMX, and 0.2% protein cocktail (MSD blocker A)). About 7,000 cells/well of the transgenic CHO-K1 cells stably expressing hMC receptor subtypes 1, 3, 4 or 5 are dispensed in 384-well Multi-Array plates (MSD) containing integrated carbon electrodes and coated with anti-cAMP antibody. Increasing concentrations of the test compounds are added and the cells are incubated for approximately 40 minutes at 37° C. A cell lysis buffer (HEPES-buffered saline solution with MgCl2 and Triton X-100® at pH 7.3) containing 0.2% protein cocktail and 2.5 nM TAG™ ruthenium-labeled cAMP (MSD) is added and the cells are incubated for approximately 90 minutes at room temperature. At the end of the second incubation period, the read buffer (Tris-buffered solution containing an ECL co-reactant and Triton X-100 at pH 7.8) is added and the cAMP levels in the cell lysates are immediately determined by ECL detection with a Sector Imager 6000 Reader® (MSD). Data are analyzed using a computer-assisted non-linear regression analysis (XL fit; IDBS) and reported as either an EC50 value.
(§2) Human MC4-R transfected cells are grown to confluence in 96 well plates (plating approximately 250,000 cells per well). The cells are treated in triplicate sets with 0.2 mM isobutylmethylxanthine (IBMX) and graded concentrations of the peptide or alternatively the peptide in the presence of 20 nM NDP-MSH. Cells similarly treated but with only 20 nM NDP-MSH serve as positive controls in a volume of 200 μL. A buffer blank serving as a negative control is also included. After incubation of one hour at 37° C., the cells are lysed by the addition of 50 μL of a cell lysis buffer. Total cAMP accumulated in 250 μL of this incubation medium is quantitated using a commercially available low pH cAMP assay kit (Amersham BioSciences) as per procedure specified by the kit supplier. […] The data for agonist is plotted and curve fitted to determine the EC50 value. A peptide showing accumulation in the same range as the negative control (buffer blank in the absence of alpha-MSH) is ineffective at the test concentration. A peptide showing attenuated accumulation is considered to be an antagonist if there is inhibition in cAMP when alpha-MSH is also present in the assay. Similar assay can be performed with hMC-1R, hMC-3R, and hMC-5R cells.
(§3) A chemiluminescence readout system that uses an enzyme fragment complementation (EFC) system with β-galactosidase (β-Gal) as the functional reporter system was used. This assay system for various melanocortin receptor systems is commercially available (cAMP Hunter GPCR assay system, Discoverx Corp, Fremont, CA). This assay utilizes the β-Gal enzyme that is split into two complementary portions; EA for Enzyme Acceptor and ED for Enzyme Donor. In the assay, the ED portion fused to cAMP is made to compete with cAMP generated by cells for binding to a cAMP-specific antibody. The EA is then added to form active β-Gal with any unbound ED-cAMP.
(§4) Briefly, 10000 cells per well are plated overnight and each well (cells incubated with 10 μl assay buffer) is then incubated with 4× serial concentration of the test compound in the cell assay buffer (5 μL) and cAMP antibody reagent (5 μL) for 30 min at 37° C. The cell lysis buffer (20 μL) containing ED-cAMP coupled enzyme fragment and the reporter substrate (Emerald II-Galacton Star, 5:1) is then added and incubated for 60 min at room temperature. Next, 20 μL of EA β-Gal fragment reagent is added.

[2] = biological target: T2, MC3R (Homo sapiens, UniProt P41968); assay: cAMP assay (EC50), MC3R; settings: EC50(MC3R)/EC50(MC4R)
T2 construct: host or cells: CHO-K1 (ECL assay)
T2 sequence (P41968 whole entry): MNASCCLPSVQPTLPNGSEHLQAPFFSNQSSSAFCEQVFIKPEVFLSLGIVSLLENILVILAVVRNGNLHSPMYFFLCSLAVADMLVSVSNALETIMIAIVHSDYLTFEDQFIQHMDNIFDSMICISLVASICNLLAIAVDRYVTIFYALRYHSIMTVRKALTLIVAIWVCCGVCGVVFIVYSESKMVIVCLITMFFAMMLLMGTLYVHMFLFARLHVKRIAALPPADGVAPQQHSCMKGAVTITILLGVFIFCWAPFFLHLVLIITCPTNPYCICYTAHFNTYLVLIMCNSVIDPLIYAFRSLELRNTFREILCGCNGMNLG
Description: as §1, §2, §3, §4

[3] = biological target: T3, MC5R (Homo sapiens, UniProt P33032); assay: cAMP assay (EC50), MC5R; settings: EC50(MC5R)/EC50(MC4R)
T3 construct: host or cells: CHO-K1 (ECL assay)
T3 sequence (P33032 whole entry): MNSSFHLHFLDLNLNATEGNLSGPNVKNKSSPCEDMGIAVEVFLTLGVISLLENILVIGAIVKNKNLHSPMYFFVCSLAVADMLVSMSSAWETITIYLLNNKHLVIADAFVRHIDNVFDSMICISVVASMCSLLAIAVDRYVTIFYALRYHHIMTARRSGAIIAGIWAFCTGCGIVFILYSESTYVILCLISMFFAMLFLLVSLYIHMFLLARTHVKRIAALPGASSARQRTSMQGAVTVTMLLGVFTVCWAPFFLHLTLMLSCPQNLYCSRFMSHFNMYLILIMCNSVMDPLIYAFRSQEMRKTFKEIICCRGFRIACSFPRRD
Description: Stimulation of intracellular cyclic AMP (cAMP) levels by the peptides is determined in a dose dependent manner by an electrochemiluminescence (ECL) assay (Meso Scale Discovery, Gaithersburg, MD, USA; referred to hereinafter as “MSD”). Briefly, the CHO-K1 cells stably expressing the hMC receptor subtypes are suspended in RMPI 1640® assay buffer (RMPI 1640 buffer contains 0.5 mM IBMX, and 0.2% protein cocktail (MSD blocker A)). About 7,000 cells/well of the transgenic CHO-K1 cells stably expressing hMC receptor subtypes 1, 3, 4 or 5 are dispensed in 384-well Multi-Array plates (MSD) containing integrated carbon electrodes and coated with anti-cAMP antibody. Increasing concentrations of the test compounds are added and the cells are incubated for approximately 40 minutes at 37° C. A cell lysis buffer (HEPES-buffered saline solution with MgCl2 and Triton X-100® at pH 7.3) containing 0.2% protein cocktail and 2.5 nM TAG™ ruthenium-labeled cAMP (MSD) is added and the cells are incubated for approximately 90 minutes at room temperature. At the end of the second incubation period, the read buffer (Tris-buffered solution containing an ECL co-reactant and Triton X-100 at pH 7.8) is added and the cAMP levels in the cell lysates are immediately determined by ECL detection with a Sector Imager 6000 Reader® (MSD). Data are analyzed using a computer-assisted non-linear regression analysis (XL fit; IDBS) and reported as either an EC50 value. […]
as §3, with “ED-cAMP. This active enzyme then converts a chemiluminescent substrate to generate an output signal that is recorded on a standard microplate reader.” for “ED-cAMP.”
as §4

Row | Ratios of EC50 values MC1/4 [1] | Ratios of EC50 values MC3/4 [2] | Ratios of EC50 values MC5/4 [3] | SMILES
1 | 0.68 | 1.13 | 130 | CC(=O)N[C@@H](CCCNC(=N)N)C(=O)N[C@H]1CSSC[C@@H](C(N)=O)NC(=O)[C@H](Cc2c[nH]c3ccccc23)NC(=O)[C@H](CCCNC(=N)N)NC(=O)[C@@H](Cc2ccccc2)NC(=O)[C@H](Cc2c[nH]cn2)NC(=O)[C@@H](CC(C)C)NC1=O [Compound 1, Ac-Arg-cyclo[Cys-D-Leu-His-D-Phe-Arg-Trp-Cys]-NH2]
2 | 0.69 | 0.96 | 420 | CC[C@@H](C)[C@H]1NC(=O)[C@@H](NC(=O)[C@H](CCCNC(=N)N)NC(C)=O)CSSC[C@@H](C(N)=O)NC(=O)[C@H](Cc2c[nH]c3ccccc23)NC(=O)[C@H](CCCNC(=N)N)NC(=O)[C@@H](Cc2ccccc2)NC(=O)[C@H](Cc2c[nH]cn2)NC1=O [Compound 2, Ac-Arg-cyclo[Cys-D-Ile-His-D-Phe-Arg-Trp-Cys]-NH2]
3 | 1 | 1 | 930 | CC(=O)N[C@@H](CCCNC(=N)N)C(=O)N[C@H]1CSSC[C@@H](C(N)=O)NC(=O)[C@H](Cc2c[nH]c3ccccc23)NC(=O)[C@H](CCCNC(=N)N)NC(=O)[C@@H](Cc2ccccc2)NC(=O)[C@H](Cc2c[nH]cn2)NC(=O)[C@@H](C(C)(C)C)NC1=O [Compound 3, Ac-Arg-cyclo[Cys-D-Tie-His-D-Phe-Arg-Trp-Cys]-NH2]
4 | 0.93 | 1.19 | 584 | CC(=O)N[C@@H](CCCNC(=N)N)C(=O)N[C@H]1CSSC[C@@H](C(N)=O)NC(=O)[C@H](Cc2c[nH]c3ccccc23)NC(=O)[C@H](CCCNC(=N)N)NC(=O)[C@@H](Cc2ccccc2)NC(=O)[C@H](Cc2c[nH]cn2)NC(=O)[C@@H](C(C)C)NC1=O [Compound 4, Ac-Arg-cyclo[Cys-D-Val-His-D-Phe-Arg-Trp-Cys]-NH2]
5 | 8 | >290 | 7 | CC(=O)N[C@@H](CCCNC(=N)N)C(=O)N[C@H]1CSSC[C@@H](C(N)=O)NC(=O)[C@H](Cc2c[nH]c3ccccc23)NC(=O)[C@H](CCCNC(=N)N)NC(=O)[C@@H](Cc2ccccc2)NC(=O)[C@H](Cc2c[nH]c3ccccc23)NC(=O)[C@@H](C)NC1=O [Compound 7, Ac-Arg-cyclo[Cys-D-Ala-Trp-D-Phe-Arg-Trp-Cys]-NH2] (Ac-RC[dA]W[dF]RWC-NH2; disulfide 2-8)
6 | 40 | 5 | 155 | CC(=O)N[C@@H](CCCNC(=N)N)C(=O)N[C@H]1CSSC[C@@H](C(N)=O)NC(=O)[C@H](Cc2c[nH]c3ccccc23)NC(=O)[C@H](CCCNC(=N)N)NC(=O)[C@@H](Cc2ccccc2)NC(=O)[C@H](CCC(N)=O)NC(=O)[C@@H](C)NC1=O [Compound 8, Ac-Arg-cyclo[Cys-D-Ala-Gln-D-Phe-Arg-Trp-Cys]-NH2] (Ac-RC[dA]Q[dF]RWC-NH2; disulfide 2-8)
7 | 90 | 30 | 530 | CC(=O)N[C@@H](CCCNC(=N)N)C(=O)N[C@H]1CSSC[C@@H](C(N)=O)NC(=O)[C@H](Cc2c[nH]c3ccccc23)NC(=O)[C@H](CCCNC(=N)N)NC(=O)[C@@H](Cc2ccccc2)NC(=O)[C@H](CC(N)=O)NC(=O)[C@@H](C)NC1=O [Compound 9, Ac-Arg-cyclo[Cys-D-Ala-Asn-D-Phe-Arg-Trp-Cys]-NH2] (Ac-RC[dA]N[dF]RWC-NH2; disulfide 2-8)
8 | 2.31 | 1.45 |  | CC(=O)N[C@@H](CCCNC(=N)N)C(=O)N[C@H]1CSSC[C@@H](C(N)=O)NC(=O)[C@H](Cc2c[nH]c3ccccc23)NC(=O)[C@H](CCCNC(=N)N)NC(=O)[C@@H](Cc2ccccc2)NC(=O)[C@H](CCCNC(=N)N)NC(=O)[C@@H](C)NC1=O [Compound 10, Ac-Arg-cyclo[Cys-D-Ala-Arg-D-Phe-Arg-Trp-Cys]-NH2] (Ac-RC[dA]R[dF]RWC-NH2; disulfide 2-8)
9 | 6.67 | >22.2 |  | CC(=O)N[C@@H](CCCNC(=N)N)C(=O)N[C@H]1CSSC[C@@H](C(N)=O)NC(=O)[C@H](Cc2c[nH]c3ccccc23)NC(=O)[C@H](CCCNC(=N)N)NC(=O)[C@@H](Cc2ccccc2)NC(=O)[C@H](Cc2ccc(O)cc2)NC(=O)[C@@H](C)NC1=O [Compound 11, Ac-Arg-cyclo[Cys-D-Ala-Tyr-D-Phe-Arg-Trp-Cys]-NH2] (Ac-RC[dA]Y[dF]RWC-NH2; disulfide 2-8)
10 | 5 | >200 | 13 | CC(=O)N[C@@H](CCCNC(=N)N)C(=O)N[C@H]1CSSC[C@@H](C(N)=O)NC(=O)[C@H](Cc2c[nH]c3ccccc23)NC(=O)[C@H](CCCNC(=N)N)NC(=O)[C@@H](Cc2ccccc2)NC(=O)[C@@H]2CCCN2C(=O)[C@@H](C)NC1=O [Compound 13, Ac-Arg-cyclo[Cys-D-Ala-Pro-D-Phe-Arg-Trp-Cys]-NH2] (Ac-RC[dA]P[dF]RWC-NH2; disulfide 2-8)

Row | SMILES | Ratios of EC50 values MC1/4 [1] | Ratios of EC50 values MC3/4 [2] | Ratios of EC50 values MC5/4 [3]
11 | CC(=O)N[C@@H](CCCNC(=N)N)C(=O)N[C@H]1CSSC[C@@H](C(N)=O)NC(=O)[C@H](Cc2c[nH]c3ccccc23)NC(=O)[C@H](CCCNC(=N)N)NC(=O)[C@@H](Cc2ccccc2)NC(=O)[C@H](Cc2cncn2C)NC(=O)[C@@H](C)NC1=O [Compound 5, Ac-Arg-cyclo[Cys-D-Ala-His(3-Me)-D-Phe-Arg-Trp-Cys]-NH2] | 4 | 350 | 945
12 | CC(=O)N[C@@H](CCCNC(=N)N)C(=O)N[C@H]1CSSC[C@@H](C(N)=O)NC(=O)[C@H](Cc2c[nH]c3ccccc23)NC(=O)[C@H](CCCNC(=N)N)NC(=O)[C@@H](Cc2ccccc2)NC(=O)[C@H](Cc2cn(C)cn2)NC(=O)[C@@H](C)NC1=O [Compound 6, Ac-Arg-cyclo[Cys-D-Ala-His(1-Me)-D-Phe-Arg-Trp-Cys]-NH2] | 40 | 6 | 662
